From US20260125374A1, “PI3K-ALPHA INHIBITORS AND METHODS OF MAKING AND USING THE SAME” (Relay Therapeutics, Inc., priority 2021, published 2026)
Converted amounts (≈) assume the structure as drawn. “Also recorded” adds a separate entry of the source.

Columns and labels:
Assay type in all cases: physicochemical
[1] = Solubility study at 37° C. (buffer, water, bio-relevant media, MeOH/DCM)
Description: In addition, residual solids were checked by chiral HPLC to confirm whether racemization occurs.
Accurate 4 mg of I-1 Form A, 5.13 mg of I-3 Form A, 4.63 mg of I-4 Form A was weighed into a 8 mL glass vial, respectively. 2 mL of solubility medium was added. The salt amount used is equivalent to 4 mg anhydrous free form. Obtained suspensions/solutions were stirred at 37° C. at 400 rpm for 2 hours and 24 hours and then centrifuged at 37° C. at 14,000 rpm for 5 min. Supernatants were analyzed by UPLC and PH meter for solubility and pH value, respectively. Residual solids (wet cakes) were characterized by XRPD to determine physical form and then analyzed by HPLC for chiral purity.

Hygroscopicity by DVS = conditions: for 1st Desorp. (%) / 1st Sorp. (%) / 2nd Desorp. (%) / 2nd Sorp. (%): DVS 25° C.
Description: • Method 1 (for I-1 Form A and I-3 Form A) • Instrument Intrinsic, Advantage or Adventure • Total gas flow 200 sccm • Oven temperature 25° C. • Solvent Water • Method Cycle: 40-0-95-0-40% RH • Stage Step: 10% • Equilibrium: 0.002 dm/dt (%/min) • Minimum dm/dt stability duration: 60 min • Maximum dm/dt stage time: 360 min • Method 2 (for I-4 Form A) • Instrument Intrinsic, Advantage or Adventure • Total gas flow 200 sccm • Oven temperature 25° C. • Solvent Water • Method Cycle: 40-95-0-95-40% RH • Stage Step: 10% • Equilibrium: 0.002 dm/dt (%/min) • Minimum dm/dt stability duration: 60 min • Maximum dm/dt stage time: 360 min
I-1 Form A is hygroscopic. It absorbs about 5.5% water by weight from 40% RH to 95% RH. […] It absorbs about 40% water by weight from 40% RH to 95% RH. Form changed after the DVS test. […] It starts to absorb water when RH>40% and potential hydrate form generates at high humidity based on DVS data. The sorption and desorption are reversible.
Water sorption and desorption behavior of I-1 Form A, I-3 Form A, and I-4 Form A was investigated by DVS at 25° C. with a cycle of 40-0-95-0-40% RH, dm/dt 0.002, min. equilibration time 60 min and max. equilibration time 360 min. XRPD was measured after the DVS test to determine form change.

Bulk stability (1 week) = assay: Bulk stability (1 week); parameters: key to CL (color): A: No change of color; B: Slight discoloration; C: Medium discoloration; D: Strong discoloration; DC: complete decomposition; conditions: for CL (color) / Bulk (HPLC) chiral purity / Bulk (HPLC) purity / Bulk (XRPD): Solid state
Description: Bulk stability of I-1 Form A and the 2 salt candidates was investigated at 25° C./92% RH in an open container, at 40° C./75% RH in an open container and at 60° C. in a tight container over 1 week. […] All the 3 salts show no obvious racemization based on chiral purity results.
I-1 Form A and the 2 salts were placed at 25° C./92% RH in an open container, at 40° C./75% RH in an open container and at 60° C. in a closed container for I week. Samples after I week were characterized by XRPD and HPLC and inspected for color change.

[2] = FaSSIF-V1, pH 6.5, 2 hours, listed as I-3 Form A
[3] = FaSSIF-V1, pH 6.5, 24 hours, listed as I-3 Form A
[4] = FeSSIF-V1, pH 5.0, 2 hours, listed as I-3 Form A
[5] = FeSSIF-V1, pH 5.0, 24 hours, listed as I-3 Form A
[6] = SGF, pH 2.0, 24 hours, listed as I-3 Form A
[7] = Water, 24 hours, listed as I-3 Form A
[8] = pH 2, HCl, 24 hours, listed as I-3 Form A
[9] = Salt candidates risk matrix (summary)
[10] = 25° C./92% RH, open container, 1 week, listed as I-3 Form A
[11] = 40° C./75% RH, open container, 1 week, listed as I-3 Form A
[12] = 60° C., tight container, 1 week
[13] = 60° C., tight container, 1 week, listed as I-3 Form A
[14] = before storage, listed as I-3 Form A

Compound: N#Cc1c(-c2cc(NC(=O)c3cc(F)cc(C(F)(F)F)c3)c3c(c2)C(=O)N[C@H]3c2cc(F)ccc2Cl)ccc2ncnn12 [Compound I-3]
- Chiral purity [1, 2]: purity: 96.1%)
- Solubility [1, 2]: 52.2 μg/mL (chiral
- Chiral purity (solids) [1, 3]: 98.4%)
- Solubility [1, 3]: 0.7 µg/mL (≈ 1.15 µM)
- pH of supernatant [1, 3]: 6.17
- Chiral purity [1, 4]: purity: 97.1%)
- Solubility [1, 4]: 176.1 μg/mL(chiral
- Chiral purity (solids) [1, 5]: 66.4%)
- Solubility [1, 5]: 19.0 µg/mL (≈ 31.2 µM)
- pH of supernatant [1, 5]: 4.86
- Solubility ([1]; MeOH/DCM (1:2, v/v), 2 hours, listed as I-3 Form A): >75000 µg/mL
- Solubility ([1]; MeOH/DCM (1:2, v/v), 24 hours, listed as I-3 Form A): >75000 µg/mL
- Solubility ([1]; SGF, pH 2.0, 2 hours, listed as I-3 Form A): 4.2 µg/mL (≈ 6.9 µM)
- Chiral purity (solids) [1, 6]: 98.3%)
- Solubility [1, 6]: 1.3 µg/mL (≈ 2.13 µM)
- pH of supernatant [1, 6]: 1.92
- Solubility ([1]; Water, 2 hours, LOQ: 0.5 μg/mL): <LOQ
- Solubility ([1]; Water, 24 hours, LOQ: 0.5 μg/mL): LOQ
- Chiral purity (solids) [1, 7]: 98.3%)
- pH of supernatant [1, 7]: 2.54
- solubility in MeOH/DCM (1:2, v/v) ([1]; listed as I-3 Form A): > 75 mg/mL
- Solubility ([1]; pH 2, HCl, 2 hours, LOQ: 0.5 μg/mL): <LOQ
- Solubility ([1]; pH 2, HCl, 24 hours, LOQ: 0.5 μg/mL): LOQ
- Chiral purity (solids) [1, 8]: 98.3%)
- pH of supernatant [1, 8]: 1.86
- 1st Desorp. (%) (Hygroscopicity by DVS; 0% RH, listed as I-3 Form A): 0.05%
- 1st Sorp. (%) (Hygroscopicity by DVS; 0% RH, listed as I-3 Form A): 0.05%
- 2nd Desorp. (%) (Hygroscopicity by DVS; 0% RH, listed as I-3 Form A): 0.00%
- 2nd Sorp. (%) (Hygroscopicity by DVS; 0% RH, listed as I-3 Form A): 0.00%
- 2nd Desorp. (%) (Hygroscopicity by DVS; 10% RH): 0.11%
- 1st Desorp. (%) (Hygroscopicity by DVS; 10% RH, listed as I-3 Form A): 0.16%
- 1st Sorp. (%) (Hygroscopicity by DVS; 10% RH, listed as I-3 Form A): 0.15%
- 2nd Sorp. (%) (Hygroscopicity by DVS; 10% RH, listed as I-3 Form A): 0.10%
- 1st Desorp. (%) (Hygroscopicity by DVS; 20% RH, listed as I-3 Form A): 0.27%
- 1st Sorp. (%) (Hygroscopicity by DVS; 20% RH, listed as I-3 Form A): 0.26%
- 2nd Desorp. (%) (Hygroscopicity by DVS; 20% RH, listed as I-3 Form A): 0.22%
- 2nd Sorp. (%) (Hygroscopicity by DVS; 20% RH, listed as I-3 Form A): 0.21%
- 1st Desorp. (%) (Hygroscopicity by DVS; 30% RH, listed as I-3 Form A): 0.40%
- 1st Sorp. (%) (Hygroscopicity by DVS; 30% RH, listed as I-3 Form A): 0.38%
- 2nd Desorp. (%) (Hygroscopicity by DVS; 30% RH, listed as I-3 Form A): 0.37%
- 2nd Sorp. (%) (Hygroscopicity by DVS; 30% RH, listed as I-3 Form A): 0.35%
- 1st Desorp. (%) (Hygroscopicity by DVS; 40% RH, listed as I-3 Form A): 0.69%
- 1st Sorp. (%) (Hygroscopicity by DVS; 40% RH, listed as I-3 Form A): 0.67%
- 2nd Desorp. (%) (Hygroscopicity by DVS; 40% RH, listed as I-3 Form A): 2.11%
- 2nd Sorp. (%) (Hygroscopicity by DVS; 40% RH, listed as I-3 Form A): 0.81%
- 1st Sorp. (%) (Hygroscopicity by DVS; 50% RH, listed as I-3 Form A): 2.34%
- 2nd Desorp. (%) (Hygroscopicity by DVS; 50% RH, listed as I-3 Form A): 2.44%
- 1st Sorp. (%) (Hygroscopicity by DVS; 60% RH, listed as I-3 Form A): 2.53%
- 2nd Desorp. (%) (Hygroscopicity by DVS; 60% RH, listed as I-3 Form A): 2.64%
- 1st Sorp. (%) (Hygroscopicity by DVS; 70% RH, listed as I-3 Form A): 2.84%
- 2nd Desorp. (%) (Hygroscopicity by DVS; 70% RH, listed as I-3 Form A): 4.17%
- 1st Sorp. (%) (Hygroscopicity by DVS; 80% RH, listed as I-3 Form A): 4.29%
- 2nd Desorp. (%) (Hygroscopicity by DVS; 80% RH, listed as I-3 Form A): 4.45%
- 1st Sorp. (%) (Hygroscopicity by DVS; 90% RH, listed as I-3 Form A): 4.64%
- 2nd Desorp. (%) (Hygroscopicity by DVS; 90% RH, listed as I-3 Form A): 4.76%
- 1st Sorp. (%) (Hygroscopicity by DVS; 95% RH, listed as I-3 Form A): 5.36%
- 2nd Desorp. (%) (Hygroscopicity by DVS; 95% RH, listed as I-3 Form A): 5.36%
- form after the DVS test (XRPD) (Hygroscopicity by DVS; listed as I-3 Form A): still I-3 Form A
- bulk stability (chemical and physical) (Bulk stability (1 week); 25° C./92% RH open, 40° C./75% RH open, 60° C. tight container, 1 week, listed as I-3 Form A): chemically and physically stable; also recorded: chemically stable and shows no XRPD change; also recorded: good chemical and physical bulk stability
- Chemical stability (Bulk stability (1 week); [9]): Stable
- Physical stability (Bulk stability (1 week); [9]): Stable
- CL (color) (Bulk stability (1 week); 25° C./92% RH, open container, 1 week): A
- Bulk (HPLC) chiral purity (Bulk stability (1 week); [10]): 98.3%
- Bulk (HPLC) purity (Bulk stability (1 week); [10]): 99.4%/
- Bulk (XRPD) (Bulk stability (1 week); [10]): No form change*
- CL (color) (Bulk stability (1 week); 40° C./75% RH, open container, 1 week): A
- Bulk (HPLC) chiral purity (Bulk stability (1 week); [11]): 98.5%
- Bulk (HPLC) purity (Bulk stability (1 week); [11]): 99.3%/
- Bulk (XRPD) (Bulk stability (1 week); [11]): No form change*
- Bulk (XRPD) (Bulk stability (1 week); [12]): No form change
- CL (color) (Bulk stability (1 week); [12]): A
- Bulk (HPLC) chiral purity (Bulk stability (1 week); [13]): 98.3%
- Bulk (HPLC) purity (Bulk stability (1 week); [13]): 99.5%/
- Chiral purity (initial) (Bulk stability (1 week); [14]): 98.6%
- Initial purity by HPLC (Bulk stability (1 week); [14]): 99.5%
